According to paper PMC2785468, “Androgen Receptor Mutations Associated with Androgen Insensitivity Syndrome: A High Content Analysis Approach Leading to Personalized Medicine” (PLoS ONE, 2009):

Target: T1, AR-P766S (Homo sapiens, UniProt P10275, P767S)
T1 construct: expressed in transfected cells
T1 sequence (P10275 1-920 P767S): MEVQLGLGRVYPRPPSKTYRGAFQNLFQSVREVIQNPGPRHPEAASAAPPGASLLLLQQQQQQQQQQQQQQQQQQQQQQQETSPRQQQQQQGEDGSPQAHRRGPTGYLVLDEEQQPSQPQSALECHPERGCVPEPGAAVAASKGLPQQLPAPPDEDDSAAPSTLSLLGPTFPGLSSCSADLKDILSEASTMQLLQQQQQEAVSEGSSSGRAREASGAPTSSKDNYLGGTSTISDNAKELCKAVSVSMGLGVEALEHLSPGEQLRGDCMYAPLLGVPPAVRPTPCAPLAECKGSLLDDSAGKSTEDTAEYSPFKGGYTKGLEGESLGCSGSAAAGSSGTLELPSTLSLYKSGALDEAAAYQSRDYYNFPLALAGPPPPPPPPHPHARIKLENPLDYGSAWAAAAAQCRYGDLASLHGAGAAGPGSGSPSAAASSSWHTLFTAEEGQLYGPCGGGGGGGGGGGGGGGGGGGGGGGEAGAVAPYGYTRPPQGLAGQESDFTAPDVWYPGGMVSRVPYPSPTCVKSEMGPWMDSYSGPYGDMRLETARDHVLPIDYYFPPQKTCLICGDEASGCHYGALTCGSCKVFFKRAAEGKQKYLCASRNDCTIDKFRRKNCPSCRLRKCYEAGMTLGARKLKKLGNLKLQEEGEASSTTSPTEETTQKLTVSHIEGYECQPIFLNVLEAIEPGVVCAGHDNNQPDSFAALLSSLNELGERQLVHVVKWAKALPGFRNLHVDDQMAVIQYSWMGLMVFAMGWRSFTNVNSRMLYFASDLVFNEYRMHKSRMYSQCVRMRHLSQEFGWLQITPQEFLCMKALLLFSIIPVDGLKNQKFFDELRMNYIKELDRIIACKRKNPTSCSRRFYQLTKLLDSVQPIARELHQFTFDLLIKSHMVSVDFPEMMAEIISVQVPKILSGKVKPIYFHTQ
Type: cell-based
Details: HeLa P766S
Procedure: To determine the global effect of the various AIS mutations on AR signaling, each was analyzed using HCA. This technology allows simultaneous quantification of AR protein expression, nuclear translocation, subnuclear patterning, and transcriptional activity. The analysis was done in HeLa cell lines stably transfected with wild type or mutant ARs fused with green fluorescent protein, or using AR immunofluorescence in primary cultures of genital skin fibroblasts generated from foreskin biopsies of historical AIS patients, or of normal neonates undergoing circumcision at birth. To prevent the effects of receptor over-expression, stable HeLa cells were carefully selected to express AR levels similar to LNCaP as previously described. Prior to ligand treatment, HeLa cells were transfected with the pARR2PB-dsRED2skl reporter plasmid, consisting of the AR responsive promoter ARR2PB [31] driving expression of the red fluorescent protein reporter dsRED2skl engineered to target peroxisomes.
For studies utilizing HeLa GFP-AR cell lines, twenty-four hours before transfection with pARR2PB-dsRED2skl, cells were plated onto 100 mm plastic dishes in medium supplemented with 5% charcoal-stripped and dialyzed-FBS. Transient introduction of the pARR-2PB-dsRED2skl reporter construct was performed using 6.0 µg reporter plasmid and 6.0 µg carrier DNA (BlueScript, Stratagene, San Diego, CA) using Transfectin (Biorad) following standard protocols. After 8-hour incubation, DNA/lipid complexes were removed. Cells were then trypsinized and replated at 10,000 cells per well in Nunc poly-D-lysine treated 96-well optical glass bottom plates and incubated an additional 12 hours to allow for cell adhesion. […] Compound dilutions and final addition to multi-well plates were performed using a Beckman Biomek NX robotic platform to ensure repeatability from experiment to experiment. After incubation was complete, using the Biomek NX robot, plates were washed with PBS and fixed for 20 min at RT in 4% formaldehyde prepared in CSK buffer (80 mM potassium PIPES, pH 6.8, 5 mM EGTA, 2 mM MgCl2). After fixation, cells were briefly permeabilized (5 min) with 0.5% Triton-X and prepared for imaging by washing in PBS, aspirating the washed solution, and adding a 1 ng/ml DAPI solution to stain DNA and a generic protein stain (CellMask, Invitrogen) to facilitate cell and nuclear image segmentation. Cells were imaged in PBS.
Cells were imaged using the Cell Lab IC-100 Image Cytometer (IC-100; Beckman Coulter) platform that consists of 1) Nikon Eclipse TE2000-U Inverted Microscope (Nikon; Melville, NY); 2) Chroma 82000 triple band filter set (Chroma; Brattleboro, VT); 3) an imaging camera: Hamamatsu ORCA-ER Digital CCD camera (Hamamatsu; Bridgewater, NJ); and 4) a focusing camera: Photonics COHU Progressive scan camera (Photonics; Oxford, MA). […] In general, 49 to 64 images were captured per well for image analysis.
While our initial AR studies using HTM were based upon CytoShop (Beckman-Coulter), [15], [33], these approaches were refined in the current work with the more robust server-client Pipeline Pilot image analysis platform (Basic and Advanced Imagine Collections, Pipeline Pilot 7.5, Accelrys, San Diego). Initially, the background signal was removed from all images using plate- and channel-specific correction images, generated by the sum projection of >600 randomly selected images for each channel from the image set. This allows for a pixel-by-pixel background subtraction that compensates any consistent uneven background artifacts in the image set. Furthermore, users are able to customize the degree of background subtraction by applying a multiplier to each correction image, useful for identification of objects such as nuclei or cell borders. After background subtraction, nuclear masks were generated using a combination of non-linear least squares and watershed-from-markers image manipulations of the DAPI images (Fig. 1B).

In the case of `C[C@@H]1CC2=CC(=O)CC[C@@H]2[C@H]2CC[C@@]3(C)[C@@H](CC[C@]3(C)O)[C@@H]21` [Mb, Mibolerone], the “Nuclear Translocation, Max” value (% signal present in the nucleus) is reported as 78.9±1.5%, the “Hyperspeckling, Max” value (absolute numerical measurement) is reported as 785±30 and the “Transcriptional Activity, Max” value (pARR2PB-dsRED2skl reporter, absolute numerical measurement) is reported as 98±2.2.
